Patent US7465754B1, “Method of potentiating chemotherapy and treating solid tumors” (Wyeth, priority 1999, dated 2008)

Assays:
[1] = tested on: tumor cell growth in vitro; assay: Tumor cell growth in vitro / cell culture; assay type: cell-based
[2] = tested on: human non small-cell lung carcinoma (NSCLC) line H-157; assay: H-157 NSCLC xenograft in nude mice, tumor growth; assay type: in vivo
Protocol: The potentiating effect of bioresponse modifiers on chemotherapeutic agents was evaluated in an in vivo standard pharmacological test procedure in which a human non small cell type lung cancer (NSCLC) cell line was engrafted onto the flanks of immunodeficient nude mice. The following briefly describes the test procedure used and results obtained. [R-(R*,R*)]-N-[(R)-6-Carboxy-N^2-[[2-carboxy-1-methyl-2-[(1-oxoheptyl)amino]ethoxy]carbonyl]-L-lysyl]-alanine was used as a representative bioresponse modifier and paclitaxcel was used a representative chemotherapeutic agent.
Balb-c nu/nu female mice were obtained from Charles River Laboratories at 6-8 weeks of age and used experimentally at 8-10 weeks of age. The human non small-cell lung carcinoma (NSCLC) line H-157 was obtained from the American tissue culture collection (ATCC) (Bethesda, Md.). Cells were grown in RPMI medium with 10% fetal bovine serum.
Mice were injected subcutaneously with 7.5×10^6H-157 NSCLC tumor cells. Tumors were allowed to develop until they reached a size of 80-150 mg. Tumor size was determined using vernier calipers to measure length (l) and width (w). The tumor volume was estimated using the formula l×w^2/2. The volume in mm^3 can be converted to milligrams directly assuming unit density. Seven days after injection, mice were randomized (day 0) into groups of 10 with a mean tumor mass of 100 mg. Treatment groups received paclitaxcel (30 mg/kg) on day 0 and either vehicle or [R-(R*,R*)]-N-[(R)-6-Carboxy-N^2-[[2-carboxy-1-methyl-2-[(1-oxoheptyl)amino]ethoxy]carbonyl]-L-lysyl]-alanine (100 μg/kg) on days 1 and 8.

## CCCCCCC(=O)N[C@@H](C(=O)O)[C@@H](C)OC(=O)N[C@@H](CCC[C@@H](N)C(=O)O)C(=O)NC(C)C(=O)O (relative stereo) [CI, [R-(R*,R*)]-N-[(R)-6-carboxy-N^2-[[2-carboxy-1-methyl-2-[(1-oxoheptyl)amino]ethoxy]carbonyl]-L-lysyl]-alanine]
[1]; cell culture, with paclitaxcel
  potentiation of the growth inhibitory effect of paclitaxcel in cell culture: nor does it potentiate the growth inhibitory effect of paclitaxcel in cell culture
[1]; in vitro
  direct inhibition of tumor cell growth in vitro: does not directly inhibit tumor cell growth in vitro

## CC(=O)O[C@H]1C(=O)[C@@]2(C)[C@H]([C@H](OC(=O)c3ccccc3)[C@]3(O)C[C@H](OC(=O)[C@H](O)[C@@H](NC(=O)c4ccccc4)c4ccccc4)C(C)=C1C3(C)C)[C@]1(OC(C)=O)CO[C@@H]1C[C@@H]2O [Paclitaxcel, paclitaxcel]
[2]; Day 7, versus untreated control, paclitaxcel 30 mg/kg day 0, vehicle or CI 100 μg/kg days 1 and 8
  % Suppression (Day 7): 30%
[2]; Day 7, paclitaxcel 30 mg/kg day 0, vehicle or CI 100 μg/kg days 1 and 8, mean ± standard deviation, 5 evaluations, 10 mice/group
  Tumor size (mg) Day 7: ^c289 ± 108 mg
[2]; Day 14, versus untreated control, paclitaxcel 30 mg/kg day 0, vehicle or CI 100 μg/kg days 1 and 8
  % Suppression (Day 14): 30%
[2]; Day 14, paclitaxcel 30 mg/kg day 0, vehicle or CI 100 μg/kg days 1 and 8, mean ± standard deviation, 5 evaluations, 10 mice/group
  Tumor size (mg) Day 14: 866 ± 348 mg
[2]; day 7, Student's t test
  tumor cell growth (in words): inhibited tumor cell growth
[2]; day 14
  tumor growth (in words): not significantly suppressed versus control
